ChEMBL document CHEMBL3885881, “DrugMatrix”

Species on record: Rattus norvegicus
Assay: DrugMatrix - Regimen: Daily Repeat
Format: toxicity, organism-based, Sprague-Dawley
Set-up: regimen Daily Repeat, gender Male, age 6-8 weeks
Conditions: in vivo, iv, vehicle 100 % SALINE; for ABSOLUTE BASOPHIL / ABSOLUTE EOSINOPHIL / ABSOLUTE LYMPHOCYTE / ABSOLUTE MONOCYTE / ABSOLUTE SEGMENTED NEUTROPHIL / BASOPHIL / EOSINOPHIL / ERYTHROCYTE COUNT / HEMATOCRIT / HEMOGLOBIN / LEUKOCYTE COUNT / LYMPHOCYTE / MEAN CORPUSCULAR HEMOGLOBIN / MEAN CORPUSCULAR HEMOGLOBIN CONCENTRATION / MEAN CORPUSCULAR VOLUME / MONOCYTE / NEUTROPHIL / NUCLEATED RED BLOOD CELLS / PLATELET COUNT: tissue Blood; for ALANINE AMINOTRANSFERASE / ALBUMIN / ALKALINE PHOSPHATASE / ASPARTATE AMINOTRANSFERASE / BLOOD UREA NITROGEN / CARBON DIOXIDE / CHLORIDE / CHOLESTEROL / CREATINE PHOSPHOKINASE / CREATININE / GLUCOSE / LACTATE DEHYDROGENASE / LIPASE / PHOSPHORUS / POTASSIUM / SODIUM / TOTAL BILIRUBIN / TOTAL PROTEIN / URIC ACID: tissue Plasma
[1] = 0 mg/kg, 72 h, dose level Control, time 3 day
[2] = 0 mg/kg, 120 h, dose level Control, time 5 day
[3] = 0.005 mg/kg, 72 h, dose level Low, time 3 day

## CC(=O)O[C@H]1C[C@@H]2CC[C@@H]3[C@H](CC[C@@]4(C)[C@H]3C[C@H]([N+]3(C)CCCCC3)[C@@H]4OC(C)=O)[C@@]2(C)C[C@@H]1N1CCCCC1.[Br-] [VECURONIUM BROMIDE]
[1]
  ABSOLUTE BASOPHIL: 0 CELLS/uL
  ABSOLUTE EOSINOPHIL: 0 CELLS/uL
  ABSOLUTE LYMPHOCYTE: 11636.83 CELLS/uL
  ABSOLUTE MONOCYTE: 159 CELLS/uL
  ABSOLUTE SEGMENTED NEUTROPHIL: 1170.83 CELLS/uL
  BASOPHIL: 0%
  EOSINOPHIL: 0%
  ERYTHROCYTE COUNT: 5.46 x10E6/uL
  HEMATOCRIT: 34.05%
  HEMOGLOBIN: 13.58 G/DL
  LEUKOCYTE COUNT: 12.97 x10E3/uL
  LYMPHOCYTE: 89.67%
  MEAN CORPUSCULAR HEMOGLOBIN: 24.87 pg
  MEAN CORPUSCULAR HEMOGLOBIN CONCENTRATION: 39.9 G/DL
  MEAN CORPUSCULAR VOLUME: 62.3 fL
  MONOCYTE: 1.33%
  NEUTROPHIL: 9%
  NUCLEATED RED BLOOD CELLS: 0.17 /100WBC
  PLATELET COUNT: 824 x10E3/uL
  ALANINE AMINOTRANSFERASE: 64.83 u/L
  ALBUMIN: 4.08 G/DL
  ALKALINE PHOSPHATASE: 421 u/L
  ASPARTATE AMINOTRANSFERASE: 116.83 u/L
  BLOOD UREA NITROGEN: 16.83 mg/dL
  CARBON DIOXIDE: 28 mmol/L
  CHLORIDE: 101.33 MEQ/L
  CHOLESTEROL: 74.17 mg/dL
  CREATINE PHOSPHOKINASE: 748.5 u/L
  CREATININE: 0.22 mg/dL
  GLUCOSE: 152.83 mg/dL
  LACTATE DEHYDROGENASE: 578.5 u/L
  LIPASE: 9.83 u/L
  PHOSPHORUS: 11.63 mg/dL
  POTASSIUM: 5.93 MEQ/L
  SODIUM: 142.1 MEQ/L
  TOTAL BILIRUBIN: 0.17 mg/dL
  TOTAL PROTEIN: 5.77 G/DL
  URIC ACID: 1.43 mg/dL
[2]
  ABSOLUTE BASOPHIL: 0 CELLS/uL
  ABSOLUTE EOSINOPHIL: 159.17 CELLS/uL
  ABSOLUTE LYMPHOCYTE: 12267.5 CELLS/uL
  ABSOLUTE MONOCYTE: 30 CELLS/uL
  ABSOLUTE SEGMENTED NEUTROPHIL: 1160 CELLS/uL
  BASOPHIL: 0%
  EOSINOPHIL: 1.17%
  ERYTHROCYTE COUNT: 5.52 x10E6/uL
  HEMATOCRIT: 34.3%
  HEMOGLOBIN: 13.73 G/DL
  LEUKOCYTE COUNT: 13.62 x10E3/uL
  LYMPHOCYTE: 90.5%
  MEAN CORPUSCULAR HEMOGLOBIN: 24.92 pg
  MEAN CORPUSCULAR HEMOGLOBIN CONCENTRATION: 40.07 G/DL
  MEAN CORPUSCULAR VOLUME: 62.17 fL
  MONOCYTE: 0.17%
  NEUTROPHIL: 8.17%
  NUCLEATED RED BLOOD CELLS: 0.17 /100WBC
  PLATELET COUNT: 1261.83 x10E3/uL
  ALANINE AMINOTRANSFERASE: 58.67 u/L
  ALBUMIN: 4.15 G/DL
  ALKALINE PHOSPHATASE: 364.67 u/L
  ASPARTATE AMINOTRANSFERASE: 105.33 u/L
  BLOOD UREA NITROGEN: 17.67 mg/dL
  CARBON DIOXIDE: 26.5 mmol/L
  CHLORIDE: 101.67 MEQ/L
  CHOLESTEROL: 63 mg/dL
  CREATINE PHOSPHOKINASE: 480.67 u/L
  CREATININE: 0.17 mg/dL
  GLUCOSE: 144.67 mg/dL
  LACTATE DEHYDROGENASE: 540.33 u/L
  LIPASE: 10.33 u/L
  PHOSPHORUS: 11.52 mg/dL
  POTASSIUM: 6.12 MEQ/L
  SODIUM: 142.45 MEQ/L
  TOTAL BILIRUBIN: 0.18 mg/dL
  TOTAL PROTEIN: 5.73 G/DL
  URIC ACID: 1.48 mg/dL
[3]
  ABSOLUTE BASOPHIL: 0 CELLS/uL
  ABSOLUTE EOSINOPHIL: 199.67 CELLS/uL
  ABSOLUTE LYMPHOCYTE: 11233.67 CELLS/uL
  ABSOLUTE MONOCYTE: 56 CELLS/uL
  ABSOLUTE SEGMENTED NEUTROPHIL: 844 CELLS/uL
  BASOPHIL: 0%
  EOSINOPHIL: 1.33%
  ERYTHROCYTE COUNT: 5.06 x10E6/uL
  HEMATOCRIT: 32.6%
  HEMOGLOBIN: 13.3 G/DL
  LEUKOCYTE COUNT: 12.33 x10E3/uL
  LYMPHOCYTE: 91.67%
  MEAN CORPUSCULAR HEMOGLOBIN: 26.33 pg
  MEAN CORPUSCULAR HEMOGLOBIN CONCENTRATION: 40.8 G/DL
  MEAN CORPUSCULAR VOLUME: 64.5 fL
  MONOCYTE: 0.33%
  NEUTROPHIL: 6.67%
  NUCLEATED RED BLOOD CELLS: 0.33 /100WBC
  PLATELET COUNT: 730.67 x10E3/uL
  ALANINE AMINOTRANSFERASE: 57 u/L
  ALBUMIN: 4.2 G/DL
  ALKALINE PHOSPHATASE: 421.67 u/L
  ASPARTATE AMINOTRANSFERASE: 117.33 u/L
  BLOOD UREA NITROGEN: 19 mg/dL
  CARBON DIOXIDE: 31 mmol/L
  CHLORIDE: 100.67 MEQ/L
  CHOLESTEROL: 72 mg/dL
  CREATINE PHOSPHOKINASE: 975.33 u/L
  CREATININE: 0.22 mg/dL
  GLUCOSE: 155.33 mg/dL
  LACTATE DEHYDROGENASE: 630.33 u/L
  LIPASE: 11.67 u/L
  PHOSPHORUS: 10.7 mg/dL
  POTASSIUM: 6.14 MEQ/L
  SODIUM: 141.83 MEQ/L
  TOTAL BILIRUBIN: 0.2 mg/dL
  TOTAL PROTEIN: 5.87 G/DL
  URIC ACID: 1.03 mg/dL
